Results: patent publication US10815238B2, “Antimicrobial compounds and methods of making and using the same” (BIOVERSYS AG, priority 2013, dated 2020)

Tests used:
[1] = system: Staphylococcus aureus (S. aureus) 11540 strain; test: Standard microdilution assay, MIC against S. aureus 11540; format: cell-based; conditions: S. aureus 11540 strain, standard microdilution assay, cutoff 16 micrograms/mL, read-out: MIC S. aureus
Experimental: The in vitro activity of the compounds of the present invention can be determined. Antimicrobial testing is typically performed to determine the minimum inhibitory concentration (MIC). Minimum inhibitory concentrations (MICs) are determined by the microdilution method in a final volume of 100 μl according to protocols outlined by The Clinical and Laboratory Standards Institute (CLSI). Performance standards for reference strains are assessed within the same experimental design to maintain quality control. See, for example, Clinical Laboratory Standards Institute: Methods for dilution antimicrobial susceptibility tests for bacteria that grow aerobically M7-A8. Approved Standard-Eighth Edition. Wayne, Pa.: CLSI; December 2008; and Clinical Laboratory Standards Institute: Performance Standards for Antimicrobial Susceptibility Testing M100-S20; Approved Standard-Twentieth Edition. Wayne, Pa.: CLSI; June 2010.
The compounds of the present invention were tested for antimicrobial activity. The Compounds 1-582 were run against Eschericia coli (E. coli) strain ATCC25922 and Compounds 320-582 were run against Staphylococcus aureus (S. aureus) 11540 strain using a standard microdilution assay to determine minimum inhibitory concentrations (MICs). […] It will be recognized by one skilled in the art that the compounds can be assessed against other bacterial organisms and that the presentation of data for activity against Eschericia coli and Staphylococcus aureus are illustrative and in no way is intended to limit the scope of the present invention. The compounds of the present invention can be assayed against a range of other microorganisms depending upon the performance activity desired to be gathered. Furthermore, the “+” and “−” representation and the selection of a cutoff value of 16 micrograms/mL is also illustrative and in no way is intended to limit the scope of the present invention.

[2] = system: Eschericia coli (E. coli) strain ATCC25922; test: Standard microdilution assay, MIC against E. coli ATCC25922; format: cell-based; conditions: Escherichia coli; E. coli strain ATCC25922, standard microdilution assay; cutoff 16 micrograms/mL; read-out: MIC E. Coli
Procedure, shortened: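 MIC determined by broth microdilution following CLSI protocols, with reference strains run in parallel for quality control. Activity scored +/− at a cutoff of 16 micrograms/mL.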

| Structure (SMILES) | MIC [1] | MIC [2] |
| --- | --- | --- |
| C[C@H](N)CCCc1cc(OC(F)(F)F)c(F)c(-c2cc3cn(-c4ccc([C@H](C)N[C@@H](CCNC(=N)N)C(=O)O)cc4)c(=O)nc3[nH]2)c1 [Compound 364] | > 16 µg/mL | > 16 µg/mL |
| C=C[C@@H]1COC[C@H](c2ccc(-n3cc4cc(-c5cc(CCC[C@H](C)N)cc(Cl)c5F)[nH]c4nc3=O)cc2)N1 [Compound 374] | > 16 µg/mL | > 16 µg/mL |
| N=C(N)NCC[C@H](CO)NCc1ccc(-n2cc3cc(-c4cc(CCC[C@@H](N)CO)cc(Cl)c4F)[nH]c3nc2=O)cc1 [Compound 377] | < 16 µg/mL | < 16 µg/mL |
| COC[C@@H](CCNC(=N)N)NCc1ccc(-n2cc3cc(-c4cc(CCC[C@@H](N)CO)cc(Cl)c4F)[nH]c3nc2=O)cc1 [Compound 378] | < 16 µg/mL | < 16 µg/mL |
| C[C@H](N)CCCc1cc(Cl)c(F)c(-c2cc3cn(-c4ccc(CN[C@@H](CN)CCNC(=N)N)cc4)c(=O)nc3[nH]2)c1 [Compound 379] | < 16 µg/mL | < 16 µg/mL |
| C[C@H](N)CCCc1cc(OC(F)(F)F)c(F)c(-c2cc3cn(-c4ccc(CN[C@@H](CN)CCNC(=N)N)cc4)c(=O)nc3[nH]2)c1 [Compound 380] | < 16 µg/mL | < 16 µg/mL |
| C[C@H](N)CCCc1cc(Cl)c(F)c(-c2cc3cn(-c4ccc(CN[C@H](C)C[C@@H](CCO)NC(=N)N)cc4)c(=O)nc3[nH]2)c1 [Compound 381] | < 16 µg/mL | < 16 µg/mL |
| C=C[C@H](CCNC(=N)N)N[C@@H](C)c1ccc(-n2cc3cc(-c4cc(CCC[C@H](C)N)cc(Cl)c4F)[nH]c3nc2=O)cc1 [Compound 382] | < 16 µg/mL | < 16 µg/mL |
| C=C[C@H](CCNC(=N)N)N[C@@H](C)c1ccc(-n2cc3cc(-c4cc(CCC[C@H](C)N)cc(OC(F)(F)F)c4F)[nH]c3nc2=O)cc1 [Compound 383] | < 16 µg/mL | < 16 µg/mL |
| C[C@H](N)CCCc1cc(Cl)c(F)c(-c2cc3cn(-c4ccc([C@@H]5COC[C@H](CCNC(=N)N)N5)cc4)c(=O)nc3[nH]2)c1 [Compound 384] | < 16 µg/mL | < 16 µg/mL |
| C[C@H](N)CCCc1cc(Cl)c(F)c(-c2cc3cn(-c4ccc([C@@H]5COC[C@H](CCN)N5)cc4)c(=O)nc3[nH]2)c1 [Compound 385] | < 16 µg/mL | < 16 µg/mL |
| C[C@H](N)CCCc1cc(Cl)c(F)c(-c2cc3cn(-c4ccc([C@H](C)NCC[C@@H]5COC(=O)N5)cc4)c(=O)nc3[nH]2)c1 [Compound 386] | < 16 µg/mL | < 16 µg/mL |
| C=C[C@@H](CCNC(=N)N)NCc1ccc(-n2cc3cc(-c4cc(CCC[C@H](C)N)cc(Cl)c4F)[nH]c3nc2=O)cc1 [Compound 387] | < 16 µg/mL | < 16 µg/mL |
| C=C[C@@H](CCNC(=N)N)NCc1ccc(-n2cc3cc(-c4cc(CCC[C@H](C)N)cc(OC(F)(F)F)c4F)[nH]c3nc2=O)cc1 [Compound 388] | < 16 µg/mL | < 16 µg/mL |
| C[C@H](N)CCCc1cc(Cl)c(F)c(-c2cc3cn(-c4ccc([C@H](C)NCC[C@@H](/C=C/Cl)NC(=N)N)cc4)c(=O)nc3[nH]2)c1 [Compound 389] | < 16 µg/mL | < 16 µg/mL |
| C[C@H](N)CCCc1cc(Cl)c(F)c(-c2cc3cn(-c4ccc([C@H]5COC[C@@H](CO)N5)cc4)c(=O)nc3[nH]2)c1 [Compound 390] | > 16 µg/mL | > 16 µg/mL |
| C[C@H](N)CCCc1cc(Cl)c(F)c(-c2cc3cn(-c4ccc([C@H]5COC[C@@H](c6c[nH]nn6)N5)cc4)c(=O)nc3[nH]2)c1 [Compound 391] | > 16 µg/mL | > 16 µg/mL |
| COc1ccc(Cn2cc([C@@H]3COC[C@H](c4ccc(-n5cc6cc(-c7cc(CCC[C@H](C)N)cc(Cl)c7F)[nH]c6nc5=O)cc4)N3)nn2)cc1 [Compound 392] | < 16 µg/mL | > 16 µg/mL |
| N=C(N)N[C@H](CN)CCNCc1ccc(-n2cc3cc(-c4cc(CCC[C@@H](N)CO)cc(Cl)c4F)[nH]c3nc2=O)cc1 [Compound 393] | < 16 µg/mL | < 16 µg/mL |
| N=C(N)NCC[C@H](CN)NCc1ccc(-n2cc3cc(-c4cc(CCC[C@@H](N)CO)cc(Cl)c4F)[nH]c3nc2=O)cc1 [Compound 394] | < 16 µg/mL | < 16 µg/mL |
| C=C[C@@H](CCNC(=N)N)NCc1ccc(-n2cc3cc(-c4cc(CCC[C@@H](N)CO)cc(Cl)c4F)[nH]c3nc2=O)cc1 [Compound 395] | < 16 µg/mL | < 16 µg/mL |
| C[C@H](N)CCCc1cc(OC(F)(F)F)c(F)c(-c2cc3cn(-c4ccc(CN[C@H](C)C[C@H](CCO)NC(=N)N)cc4)c(=O)nc3[nH]2)c1 [Compound 396] | < 16 µg/mL | < 16 µg/mL |
| C[C@H](N)CCCc1cc(Cl)c(F)c(-c2cc3cn(-c4ccc(CN[C@H](C)C[C@H](CN)NC(=N)N)cc4)c(=O)nc3[nH]2)c1 [Compound 397] | < 16 µg/mL | < 16 µg/mL |

Further lines, results first:

| MIC [1] | MIC [2] | Structure (SMILES) |
| --- | --- | --- |
| < 16 µg/mL | < 16 µg/mL | COC(=O)[C@H](CCNC(=N)N)N[C@@H](C)c1ccc(-n2cc3cc(-c4cc(CCC[C@H](C)N)cc(Cl)c4F)[nH]c3nc2=O)cc1 [Compound 356] |
| < 16 µg/mL | < 16 µg/mL | C[C@H](N)CCCc1cc(OC(F)(F)F)c(F)c(-c2cc3cn(-c4ccc([C@@H]5COC[C@H](CCNC(=N)N)N5)cc4)c(=O)nc3[nH]2)c1 [Compound 357] |
| < 16 µg/mL | < 16 µg/mL | C[C@H](N)CCCc1cc(OC(F)(F)F)c(F)c(-c2cc3cn(-c4ccc([C@@H]5COC[C@H](CCN)N5)cc4)c(=O)nc3[nH]2)c1 [Compound 358] |
| < 16 µg/mL | < 16 µg/mL | C[C@H](N)CCCc1cc(Cl)c(F)c(-c2cc3cn(-c4ccc(CN[C@@H](C)C[C@@H](CCO)NC(=N)N)cc4)c(=O)nc3[nH]2)c1 [Compound 359] |
| < 16 µg/mL | < 16 µg/mL | C[C@H](N)CCCc1cc(Cl)c(F)c(-c2cc3cn(-c4ccc(CN[C@@H](C)C[C@H](CCO)NC(=N)N)cc4)c(=O)nc3[nH]2)c1 [Compound 360] |
| < 16 µg/mL | < 16 µg/mL | C[C@H](N)CCCc1cc(OC(F)(F)F)c(F)c(-c2cc3cn(-c4ccc(CN[C@@H](C)C[C@H](CCO)NC(=N)N)cc4)c(=O)nc3[nH]2)c1 [Compound 361] |
| < 16 µg/mL | < 16 µg/mL | COC(=O)[C@H](CCNC(=N)N)N[C@@H](C)c1ccc(-n2cc3cc(-c4cc(CCC[C@H](C)N)cc(OC(F)(F)F)c4F)[nH]c3nc2=O)cc1 [Compound 362] |
| < 16 µg/mL | < 16 µg/mL | C[C@H](N)CCCc1cc(Cl)c(F)c(-c2cc3cn(-c4ccc([C@H](C)N[C@@H](CCNC(=N)N)C(N)=O)cc4)c(=O)nc3[nH]2)c1 [Compound 363] |
| < 16 µg/mL | < 16 µg/mL | C[C@H](N)CCCc1cc(Cl)c(F)c(-c2cc3cn(-c4ccc([C@H](C)NCC[C@@H](CSc5nccs5)NC(=N)N)cc4)c(=O)nc3[nH]2)c1 [Compound 365] |
| < 16 µg/mL | < 16 µg/mL | C[C@H](N)CCCc1cc(OC(F)(F)F)c(F)c(-c2cc3cn(-c4ccc([C@H](C)N[C@H](CO)CCNC(=N)N)cc4)c(=O)nc3[nH]2)c1 [Compound 366] |
| < 16 µg/mL | < 16 µg/mL | C[C@H](N)CCCc1cc(Cl)c(F)c(-c2cc3cn(-c4ccc([C@H](C)N[C@H](CO)CCNC(=N)N)cc4)c(=O)nc3[nH]2)c1 [Compound 367] |
| < 16 µg/mL | < 16 µg/mL | C[C@H](N)CCCc1cc(Cl)c(F)c(-c2cc3cn(-c4ccc([C@H](C)NCC[C@H](CNC(=O)CN)NC(=N)N)cc4)c(=O)nc3[nH]2)c1 [Compound 368] |
| < 16 µg/mL | < 16 µg/mL | C[C@H](N)CCCc1cc(OC(F)(F)F)c(F)c(-c2cc3cn(-c4ccc([C@H](C)NCC[C@H](CNC(=O)CN)NC(=N)N)cc4)c(=O)nc3[nH]2)c1 [Compound 369] |
| < 16 µg/mL | < 16 µg/mL | C[C@@H](N)CCCc1cc(Cl)c(F)c(-c2cc3cn(-c4ccc([C@@H](C)NCCCNC(=N)N)cc4)c(=O)nc3[nH]2)c1 [Compound 370] |
| < 16 µg/mL | < 16 µg/mL | C=C[C@H](C[C@@H](C)NCc1ccc(-n2cc3cc(-c4cc(CCC[C@H](C)N)cc(Cl)c4F)[nH]c3nc2=O)cc1)NC(=N)N [Compound 371] |
| < 16 µg/mL | < 16 µg/mL | C=C[C@H](C[C@@H](C)NCc1ccc(-n2cc3cc(-c4cc(CCC[C@H](C)N)cc(OC(F)(F)F)c4F)[nH]c3nc2=O)cc1)NC(=N)N [Compound 372] |
| < 16 µg/mL | < 16 µg/mL | C=C[C@@H](C[C@@H](C)NCc1ccc(-n2cc3cc(-c4cc(CCC[C@H](C)N)cc(Cl)c4F)[nH]c3nc2=O)cc1)NC(=N)N [Compound 373] |
| < 16 µg/mL | < 16 µg/mL | C[C@H](N)CCCc1cc(Cl)c(F)c(-c2cc3cn(-c4ccc(CNCC[C@@H](CN)NC(=N)N)cc4)c(=O)nc3[nH]2)c1 [Compound 375] |
| < 16 µg/mL | < 16 µg/mL | C[C@H](N)CCCc1cc(OC(F)(F)F)c(F)c(-c2cc3cn(-c4ccc(CNCC[C@@H](CN)NC(=N)N)cc4)c(=O)nc3[nH]2)c1 [Compound 376] |
